# Tested on: PAF-induced rabbit platelet aggregation
# Assay: Inhibition of PAF-induced rabbit platelet aggregation (in vitro, platelet-rich plasma)
# Format: cell-based
# Conditions: Oryctolagus cuniculus, rabbit PRP, 37° C., final PAF concentration 0.005 μ1/ml [sic]
# Experimental: (§1) The inhibition of PAF-induced platelet aggregation was examined by using a platelet-rich plasma (PRP) of rabbit according to the method of Mustard et al. [J.F. Mustard et al., J. Lab. Clin. Med., 64, 548 (1964)], which is an improvement of the method of Born [G.V.R. Born, J. Physiol., London, 162, 67 (1962)]. That is, 80-100 ml of blood per animal was collected from carotid arteries of male rabbits of the Japanese white breed without anesthesia into a polyethylene vessel containing 1/10 the volume of a 3.8% sodium citrate solution. A portion (about 3 ml) of the collected blood was centrifuged at a high speed (11,000 rpm) for 60 seconds, giving a platelet-poor plasma (PPP) as supernatant. The remainder of the blood was centrifuged at a low speed (1000 rpm) for 10 minutes, giving a platelet-rich plasma (PRP) as supernatant.
# (§2) The degree of platelet aggregation was determined by nephelometry with an aggregometer (Hematracer, Niko Bioscience Co.) while stirring the PRP at 1000 rpm at 37° C. The platelet aggregation activity was expressed in terms of the light transmittance (%), the value of PRP being taken as 0% and the value of PPP as 100%. A portion (0.2 ml) of the PRP was placed in a glass cuvette containing a silicone-treated stirring iron rod, and 2 µl of dimethylsulfoxide was added. AFter 2 minutes, PAF dissolved in 0.25% BSA physiological saline was added to give a final PAF concentration of 0.005 μ1/ml, and the maximum aggregation was determined. To examine the inhibitory activity of test compounds on the platelet aggregation caused by PAF, 2 µl of a dimethylsulfoxide solution of each test compound was added in place of the dimethylsulfoxide. The percentage inhibition by the test compound of PAF-induced platelet aggregation was calculated according to the following equation and the value of IC50 was determined. [formula]
row,Compound,IC50 [µg/mL]
1,COc1ccc(CCN2C(=O)[C@@H](C)S[C@@H]2c2cccnc2)cc1OC (relative stereo) [compound 37],0.7
2,CCCC[C@H]1S[C@H](c2cccnc2)N(CCN(C)C)C1=O (relative stereo) [compound 69],0.24
3,CN(C)CCN1C(=O)[C@@H](CCOCc2ccccc2)S[C@@H]1c1cccnc1 (relative stereo) [compound 131],0.14
4,CCCCCCC1SC(c2cccnc2)N(C)C1=O (stereo not shown) [compound 47],1.4
5,CCCCCCCCC[C@H]1S[C@H](c2cccnc2)N(C)C1=O (relative stereo) [compound 49],2.4
6,CCCCOCCOCC[C@H]1S[C@H](c2cccnc2)N(CCN(C)C)C1=O (relative stereo) [compound 135],0.15
7,"CCC1SC(c2cccnc2)N(CCN(C)C)C1=O (stereo not shown) [compound 24, 5-ethyl-3-(2-dimethylaminoethyl)-2-(3-pyridyl)thiazolidin-4-one]",2
8,CCCC1SC(c2cccnc2)N(C)C1=O (stereo not shown) [compound 43],1.2
9,CCC[C@H]1S[C@H](c2cccnc2)N(CCN(C)C)C1=O (relative stereo) [compound 67],0.45
10,CN(C)CCN1C(=O)[C@@H](CCCO[Si](C)(C)C(C)(C)C)S[C@@H]1c1cccnc1 (relative stereo) [compound 169],0.026
11,CCCCCCCCC[C@H]1S[C@@H](c2cccnc2)N(CCCN(C)C)C1=O (relative stereo) [compound 108],0.7
12,CCCCCCCCCCC[C@H]1S[C@@H](c2cccnc2)N(CCN(C)C)C1=O (relative stereo) [compound 82],0.6
13,"C[C@H]1S[C@@H](c2cccnc2)N(C)C1=O (relative stereo) [Compound No. 2, 3,5-Dimethyl-2-(3-pyridyl)thiazolidin-4-one]",4
14,"C[C@@H]1S[C@@H](c2cccnc2)N(C)C1=O (single isomer, unassigned) [compound 181, (+)-trans-3,5-dimethyl-2-(3-pyridyl)-thiazolidin-4-one]",5
15,"CN1C(=O)C(C)(C)SC1c1cccnc1 (stereo not shown) [compound 8, 5,5,3-trimethyl-2-(3-pyridyl)-thiazolidin-4-one]",3.6
16,CN(C)CCN1C(=O)C(CCOCc2ccccc2)(CCOCc2ccccc2)SC1c1cccnc1 (stereo not shown) [compound 130],4.2
17,CC(C)COCCOCC[C@H]1S[C@H](c2cccnc2)N(CCN(C)C)C1=O (relative stereo) [compound 150],0.16
18,C[C@H]1S[C@H](c2cccnc2)N(CCN(C)C)C1=O (relative stereo) [compound 127],1.7
19,CCCCCCC[C@H]1S[C@@H](c2cccnc2)N(CCN(C)C)C1=O (relative stereo) [compound 76],0.2
20,CCCCCCCCCCC[C@H]1S[C@H](c2cccnc2)N(CCN(C)C)C1=O (relative stereo) [compound 81],0.1
21,CN(C)CCN1C(=O)[C@@H](CCCO[Si](C)(C)C(C)(C)C)S[C@H]1c1cccnc1 (relative stereo) [compound 170],0.052
22,CCCCC[C@H]1S[C@H](c2cccnc2)N(CCN(C)C)C1=O (relative stereo) [compound 71],0.32
23,"CCOC(=O)CN1C(=O)[C@@H](C)S[C@H]1c1cccnc1 (relative stereo) [Compound No. 9, 3-ethoxycarbonylmethyl-5-methyl-2(3-pyridyl)thiazolidin-4-one]",1.6
24,CC(C)OCCC1SC(c2cccnc2)N(CCN(C)C)C1=O (stereo not shown) [compound 154],2.4

row,Compound,IC50 [µg/mL]
1,"CC(=O)SCCN1C(=O)[C@@H](C)S[C@H]1c1cccnc1 (relative stereo) [Compound No. 18, 3-(2-Acetylthioethyl)-5-methyl-2(3-pyridyl)thiazolidin-4-one]",3
2,CCCCCC1SC(c2cccnc2)N(C)C1=O (stereo not shown) [compound 46],1.9
3,CCN1C(=O)C(C)SC1c1cccnc1 (stereo not shown) [compound 30],4.2
4,CCCCCCCC[C@H]1S[C@@H](c2cccnc2)N(CCN(C)C)C1=O (relative stereo) [compound 78],0.14
5,"CCCCCCCCC[C@H]1S[C@H](c2cccnc2)N(CCN(C)C)C1=O (relative stereo) [Compound No. 27, 3-(2-dimethylaminoethyl)-5-(n-nonyl)-2-(3-pyridyl)thiazolidin-4-one]",0.02
6,CCCCCC[C@H]1S[C@H](c2cccnc2)N(CCN(C)C)C1=O (relative stereo) [compound 73],0.07
7,CCCCCCCCCCCC[C@H]1S[C@H](c2cccnc2)N(CCN(C)C)C1=O (relative stereo) [compound 83],0.27
8,CCCCCCCCCCC1SC(c2cccnc2)N(C)C1=O (stereo not shown) [compound 51],1.4
9,CN(C)CCN1C(=O)C(CC(F)(F)F)SC1c1cccnc1 (stereo not shown) [compound 171],4.2
10,"CCCCC1SC(c2cccnc2)N(C)C1=O (stereo not shown) [compound 7, 5-butyl-3-methyl-2-(3-pyridyl)-thiazolidin-4-one]",2
11,CCCCCCCC[C@H]1S[C@H](c2cccnc2)N(CCN(C)C)C1=O (relative stereo) [compound 77],0.034
12,CCCCCCC[C@H]1S[C@H](c2cccnc2)N(CCN(C)C)C1=O (relative stereo) [compound 75],0.06
13,CCOCCCC1SC(c2cccnc2)N(CCN(C)C)C1=O (stereo not shown) [compound 137],0.19
14,CCC1SC(c2cccnc2)N(C)C1=O (stereo not shown) [compound 42],2.5
15,CN(C)CCN1C(=O)C(CCOCCO[Si](C)(C)C(C)(C)C)SC1c1cccnc1 (stereo not shown) [compound 165],0.3
16,"C[C@H]1S[C@H](c2cccnc2)N(CC(=O)OC(C)(C)C)C1=O (relative stereo) [Compound No. 15, 3-t-butyloxycarbonylmethyl-5-methyl-2-(3-pyridyl)thiazolidin-4-one]",2.6
17,CCCCCCCCCC[C@H]1S[C@H](c2cccnc2)N(CCN(C)C)C1=O (relative stereo) [compound 79],0.05
18,CCCCCCCCCC[C@H]1S[C@@H](c2cccnc2)N(CCN(C)C)C1=O (relative stereo) [compound 80],0.35
19,C[C@H]1S[C@@H](c2cccnc2)N(CCN(C)C)C1=O (relative stereo) [compound 128],4.2
20,CCCCOCC[C@H]1S[C@H](c2cccnc2)N(CCN(C)C)C1=O (relative stereo) [compound 133],0.18
21,"CN(C)CCN1C(=O)C(C)(C)SC1c1cccnc1 (stereo not shown) [compound 25, 5,5-dimethyl-3-(2-dimethylaminoethyl)2-(3-pyridyl)thiazolidin-4-one]",10
22,CCCCCCCCC[C@H]1S[C@@H](c2cccnc2)N(C)C1=O (relative stereo) [compound 50],4.6
23,"C[C@H]1S[C@@H](c2cccnc2)N(C)C1=O (single isomer, unassigned) [compound 178, (+)-cis-3,5-dimethyl-2-(3-pyridyl)-thiazolidin-4-one]",1.5

# Tested on: PAF-induced blood concentration
# Assay: Test in vivo for inhibition of PAF-induced blood concentration
# Conditions: guinea pigs, dose 3 mg/kg iv, PAF iv 2 min later
# Experimental: Guinea pigs under anesthesia with urethane (6.25 mg/kg injected into the abdominal cavities) were cannulated through carotid arteries and jugular veins. The carotid artery cannulae were used for blood sampling and the jugular vein cannulae for the intravenous injection of test compound and PAF.
# Compound No. 27 was suspended in 10% Nikkol® liquid to a concentration of 3 mg/ml, and 1 ml/kg of the resulting suspension was administered through the jugular vein cannulae. Two minutes later, 1 ml/kg of a 0.1 μg/m1 PAF solution was administered through the jugular vein cannulae. Then, blood was sampled at times. The blood samples were each centrifuged at 11,000 rpm for 5 minutes and the hematocrit values were measured to determine the maximum increase (blood concentration) in hematocrit value.
# For a control, 0.5% methyl cellulose solution was administered in place of compound No. 27.
# The percentage inhibition of the PAF-induced blood concentration by compound No. 27 was calculated according to the following equation: [formula] The found percentage inhibition was 87%.
row,Compound,Percentage inhibition of PAF-induced blood concentration (maximum increase in hematocrit value) [%]
1,"C[C@H]1S[C@@H](c2cccnc2)N(C)C1=O (relative stereo) [Compound No. 2, 3,5-Dimethyl-2-(3-pyridyl)thiazolidin-4-one]",53
2,"CCCCCCCCC[C@H]1S[C@H](c2cccnc2)N(CCN(C)C)C1=O (relative stereo) [Compound No. 27, 3-(2-dimethylaminoethyl)-5-(n-nonyl)-2-(3-pyridyl)thiazolidin-4-one]",87

# Tested on: PAF-induced human platelet aggregation
# Assay: Inhibition of PAF-induced human platelet aggregation (in vitro, human PRP)
# Format: cell-based
# Conditions: PAF concentration 0.3 μM
# Experimental: as §1, §2
# The inhibition of PAF-induced platelet aggregation was tested by using human PRP. The test was conducted according to the procedure of the above case of rabbit, thereby evaluating the percentages inhibition and IC50 values of test compounds at final PAF concentrations of 0.3 μM and 1 μM.
row,Compound,IC50 [µg/mL]
1,CCCCCCCCC[C@H]1S[C@@H](c2cccnc2)N(CCCN(C)C)C1=O (relative stereo) [compound 108],1.8
2,"C[C@H]1S[C@@H](c2cccnc2)N(C)C1=O (relative stereo) [Compound No. 2, 3,5-Dimethyl-2-(3-pyridyl)thiazolidin-4-one]",5.5
3,C#CCN1C(=O)[C@@H](C)S[C@@H]1c1cccnc1 (relative stereo) [compound 33],5.5
4,"CCCCCCCCC[C@H]1S[C@H](c2cccnc2)N(CCN(C)C)C1=O (relative stereo) [Compound No. 27, 3-(2-dimethylaminoethyl)-5-(n-nonyl)-2-(3-pyridyl)thiazolidin-4-one]",0.2

# Same assay, conditions: PAF concentration 1 μM
row,Compound,IC50 [µg/mL]
1,CCCCCCCCC[C@H]1S[C@@H](c2cccnc2)N(CCCN(C)C)C1=O (relative stereo) [compound 108],6
2,"CCCCCCCCC[C@H]1S[C@H](c2cccnc2)N(CCN(C)C)C1=O (relative stereo) [Compound No. 27, 3-(2-dimethylaminoethyl)-5-(n-nonyl)-2-(3-pyridyl)thiazolidin-4-one]",0.4
